According to patent US6448273B1, “Orally active iron (III) chelators” (BTG International Limited, priority 1997, dated 2002):
Structures can show the parent of a compound that is named as a salt. Where two headings read alike, the source gives them in different places.

Legend:
[1] = pM for Iron III (affinity for iron as Fe III); assay type: physicochemical; conditions: negative log ferric ion concentration; total iron 10^-6 M, ligand 10^-5 M
Source text: The present inventors now have provided a group of 3-hydroxypyridin-4-one iron chelators having improved properties as compared to the prior art as assessed against the criteria set out above. […] Preferred compounds have efficiency of iron mobilisation of in excess of 52% when given orally to rats. […]

[2] = Iron (III) complex stability constant Logβ3; assay type: physicochemical
[3] = in vivo; cited from earlier work
[4] = cited from earlier work
[5] = Iron III Mobilisation Efficacy Assay in Rat: Oral Administration; assay type: in vivo; conditions: for Efficacy: iron mobilisation less control
Experimental: Control rats were given an equivalent volume of water. The rats were placed in individual metabolic cages and their urine and faeces collected. One hour after the administration they were allowed access to food, with no restriction on water being made throughout the study period. The investigation was terminated 24 hours after the ^59Fe ferritin administration when rats were sacrificed and their livers and gastrointestinal tracts, including all contents including faeces, were removed for gamma counting.

[6] = Distribution coefficient DpH7.4 (Kpart), octanol/MOPS pH 7.4; assay type: physicochemical
Source text: The requirements for orally active chelators are set out in Table 4 of Hider et al as (i) good absorption from tile gastrointestinal tract, (ii) efficient liver extraction, (iii) poor entry into peripheral cells such as thymus, muscle, heart and bone marrow and (iv) poor ability to penetrate the blood-brain barrier and maternal/placental barriers.

[7] = pKa of the ligand; assay type: physicochemical
[8] = method marked (p), first pKa, read-out: pKa, first value (p)
[9] = method marked (p), second pKa, read-out: pKa, second value (p)
[10] = method marked (s), first pKa, read-out: pKa, first value (s)
[11] = method marked (s), second pKa, read-out: pKa, second value (s)

| SMILES | pMpH 7.45 [1] | Logβ3 [2] | DpH 7.4 [6] | pKa, first value (s) ([7]; method marked (s), first pKa) | pKa, second value (s) ([7]; method marked (s), second pKa) | pKa [7, 8] | pKa [7, 9] | pKa [7, 10] | pKa [7, 11] | melting point | crossing of placenta and blood brain barrier [3] | phase II metabolism [3] | effectiveness in man [4] | Iron Mobilisation ([5]; 150 μmol/kg) | Efficacy ([5]; 150 μmol/kg) | Iron Mobilisation ([5]; 300 μmol/kg) | Efficacy ([5]; 300 μmol/kg) | Iron Mobilisation ([5]; 450 μmol/kg) | Efficacy ([5]; 450 μmol/kg) |
| --- | --- | --- | --- | --- | --- | --- | --- | --- | --- | --- | --- | --- | --- | --- | --- | --- | --- | --- | --- |
| Cc1c(O)c(=O)ccn1C [CP20, reference compound] | 19.4 | 36.3 | 0.17 | 3.56 | 9.64 | – | – | – | – | – | able to cross the placenta and blood brain barrier | rapidly inactivated by phase II metabolism | effective in man | 6.3 ± 2.1% | 2.4% | 9.2 ± 2.2% | 5.4% | 13.4 ± 5.2% | 9.5% |
| COCCNC(=O)c1c(O)c(=O)cc(C)n1C [CP506, 1,6-Dimethyl-3-hydroxy-4(1H)-pyridinone-2-carboxy-(N-2′-methoxyethyl)-amide hydrochloride] | 22.57 | 34.88 | 0.04 | – | – | 2.62 | 8.34 | 2.5 | 8.35 | – | – | – | – | – | – | – | – | – | – |
| CC(O)c1c(O)c(=O)ccn1CCCO (stereo not drawn) [CP372, 1-(3-hydroxypropyl)-2-(1-hydroxyethyl)-3-hydroxy-pyridin-4(1H)-one hydrochloride] | 21.48 | 34.67 | 0.075 | 2.96 | 8.69 | – | – | – | – | – | – | – | – | – | – | – | – | – | – |
| Cc1cc(=O)c(O)c(C(=O)NC(C)C)n1C [CP504, 1,6-Dimethyl-3-hydroxy-4(1H)-pyridinone-2-carboxy-(N-isopropyl)-amide hydrochloride] | 22.46 | 35.34 | 0.30 | – | – | 2.81 | 8.74 | 2.64 | 8.56 | – | – | – | – | – | – | – | – | – | – |
| CCn1ccc(=O)c(O)c1C(C)O (stereo not drawn) [CP365, 1-Ethyl-2-(1-hydroxyethyl)-3-hydroxy-pyridin-4(1H)-one hydrochloride] | 21.3 | 34.8 | 0.27 | 3.11 | 8.74 | – | – | – | – | – | – | – | – | – | – | – | – | – | – |
| Cn1ccc(=O)c(O)c1CO [CP364, 1-Methyl-2-hydroxymethyl-3-hydroxy-pyridin-4(1H)-one hydrochloride] | 20.75 | 35.3 | 0.048 | 2.93 | – | 3.13 | 9.22 | – | 9.12 | – | – | – | – | – | – | – | – | – | – |
| COCc1cc(=O)c(O)c(COC)n1C [CP388, 2,6-Dimethoxymethyl-1-methyl-3-hydroxypyridin-4(1H)-one hydrochloride] | 21.1 | 34.5 | 0.40 | – | – | 2.93 | 8.87 | 2.73 | 8.77 | – | – | – | – | – | – | – | – | – | – |

The next lines start with results.

| pMpH 7.45 [1] | Logβ3 [2] | DpH 7.4 [6] | pKa, first value (s) ([7]; method marked (s), first pKa) | pKa, second value (s) ([7]; method marked (s), second pKa) | pKa [7, 8] | pKa [7, 9] | pKa [7, 10] | pKa [7, 11] | melting point | SMILES | crossing of placenta and blood brain barrier [3] | phase II metabolism [3] | effectiveness in man [4] | Iron Mobilisation ([5]; 150 μmol/kg) | Efficacy ([5]; 150 μmol/kg) | Iron Mobilisation ([5]; 300 μmol/kg) | Efficacy ([5]; 300 μmol/kg) | Iron Mobilisation ([5]; 450 μmol/kg) | Efficacy ([5]; 450 μmol/kg) |
| --- | --- | --- | --- | --- | --- | --- | --- | --- | --- | --- | --- | --- | --- | --- | --- | --- | --- | --- | --- |
| 19.7 | 36.7 | 1.79 | – | – | – | – | – | – | – | CCc1c(O)c(=O)ccn1CC [CP94, 1,2-diethyl-3-hydroxypyridin-4-one, reference compound] | able to cross the placenta and blood brain barrier | rapidly inactivated by phase II metabolism | effective in man | 16.5 ± 6.2% | 12.6% | 35.7 ± 4.4% | 31.8% | 59.7 ± 10.9% | 55.8% |
| 23.42 | 35.78 | 0.04 | – | – | 2.83 | 8.38 | 2.64 | 8.36 | – | CNC(=O)c1c(O)c(=O)cc(C)n1C [CP502, 1,6-Dimethyl-3-hydroxy-4(1H)-pyridinone-2-carboxy-(N-methyl)-amide hydrochloride] | – | – | – | – | – | – | – | – | – |
| 20.69 | 35.25 | 0.056 | 2.87 | 9.14 | – | – | – | – | 138 to 139 °C | O=c1ccn(CCCO)c(CO)c1O [CP366, 1-(3-hydroxypropyl)-2-hydroxymethyl-3-hydroxy-pyridin-4(1H)-one] | – | – | – | – | – | – | – | – | – |
| 20.95 | 35.03 | 0.73 | – | 8.98 | 2.76 | – | 2.78 | – | – | CCC(O)c1c(O)c(=O)cc(C)n1C (stereo not drawn) [CP374, 1,6-Dimethyl-2-(1-hydroxypropyl)-3-hydroxy-pyridin-4(1H)-one hydrochloride] | – | – | – | 34.0 ± 4.3% | 30.1% | – | – | 60.4 ± 15.6% | 56.5% |
| 23.46 | 35.13 | 0.16 | – | – | 2.61 | 8.1 | 2.61 | 8.1 | – | Cc1cc(=O)c(O)c(C(=O)N(C)C)n1C [CP508, 1,6-Dimethyl-3-hydroxy-4(1H)-pyridinone-2-carboxy-(N,N-dimethyl)-amide hydrochloride] | – | – | – | – | – | – | – | – | – |
| 20.35 | 35.6 | 0.223 | 3.28 | 9.38 | – | – | – | – | – | CCn1c(C)cc(=O)c(O)c1CO [CP369, 1-Ethyl-2-hydroxymethyl-3-hydroxy-6-methyl-pyridin-4(1H)-one hydrochloride] | – | – | – | – | – | – | – | – | – |
